From publication PMC10033419, “Blocking NS3–NS4B interaction inhibits dengue virus in non-human primates” (Nature, 2023)

Test system: DENV-2 RL strain
Assay: Survival study, lethal DENV challenge with 4G2 antibody
Format: in vivo, AG129 mice
Conditions: 2'CMC

In the case of `C[C@@]1(O)[C@H](O)[C@@H](CO)O[C@H]1n1ccc(N)nc1=O` [2'CMC], the “% Survival” value (d p.i. 0) is reported as 100%, the “% Survival” value (d p.i. 1) is reported as 100% and the “% Survival” value (d p.i. 2) is reported as 100%. The “% Survival” value (d p.i. 3) was 100%, the “% Survival” value (d p.i. 4) was 100% and the “% Survival” value (d p.i. 5) was 100%. The “% Survival” value (d p.i. 6) was 100%, the “% Survival” value (d p.i. 7) was 100% and the “% Survival” value (d p.i. 8) was 100%. For the same compound, the “% Survival” value (d p.i. 9) was 100%, the “% Survival” value (d p.i. 10) was 100% and the “% Survival” value (d p.i. 11) was 100%. For the same compound, the “% Survival” value (d p.i. 12) was 100%, the “% Survival” value (d p.i. 13) was 90% and the “% Survival” value (d p.i. 14) was 80%. The “% Survival” value (d p.i. 15) was 80%, the “% Survival” value (d p.i. 16) was 80% and the “% Survival” value (d p.i. 17) was 80%. The “% Survival” value (d p.i. 18) was 60%, the “% Survival” value (d p.i. 19) was 60% and the “% Survival” value (d p.i. 20) was 60%. The “% Survival” value (d p.i. 21) was 60%, the “% Survival” value (d p.i. 22) was 60% and the “% Survival” value (d p.i. 23) was 60%. The “% Survival” value (d p.i. 24) was 50% and the “% Survival” value (d p.i. 25 = end of study) was 50%.
